According to PubChem BioAssay (NCI):
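Values below derive from 48-hour exposures of cells grown in 96-well plates, with endpoints linearly interpolated between the two concentrations bracketing the appropriate inhibition level. Abbreviation: GI50, concentration required for 50% inhibition of growth. TGI marks complete inhibition of growth.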

How the values were obtained:
Assay in all cases: growth of human tumour cells (NCI), 48 h
[1] = test system: IGROV1 ovarian
[2] = test system: SR leukemia
[3] = test system: 786-0 renal
[4] = test system: A549 NSCLC
[5] = test system: UACC-62 melanoma
[6] = test system: SK-MEL-2 melanoma
[7] = test system: UACC-257 melanoma
[8] = test system: NCI/ADR-RES ovarian
[9] = test system: HCT-15 colon
[10] = test system: OVCAR-4 ovarian

Row | SMILES | GI50 [1] | TGI [1] | GI50 [2] | TGI [2] | GI50 [3] | TGI [3] | GI50 [4] | TGI [4] | GI50 [5] | TGI [5] | GI50 [6] | TGI [6] | GI50 [7] | TGI [7] | GI50 [8] | TGI [8] | GI50 [9] | TGI [9] | GI50 [10] | TGI [10]
1 | O=C(/C=C\c1ccc(Cl)c(Cl)c1)c1ccccc1 | 6.82 µM | 21 µM | 2.75 µM | 9.22 µM | 8.07 µM | 21.6 µM | 11.5 µM | 26.2 µM | 9.33 µM | 21.6 µM | 13.8 µM | 27.4 µM | 12.2 µM | 24.9 µM | 5.49 µM | 26.4 µM | 2.84 µM | 10.3 µM | 8.83 µM | 21.3 µM
2 | O=C(NC(c1ccccc1)C(O)C(=O)OCc1ccc2c(c1)C(=O)c1ccccc1C2=O)c1ccccc1 (stereo not given) |  | 48.5 µM |  | > 88.3 µM |  | 6.4 µM |  | 54 µM |  | 53 µM |  | 86.9 µM |  | > 72 µM |  | 33.9 µM |  | > 100 µM |  | 4.99 µM
3 | CC[N+]1(C)CCC(O)(/C=C/c2ccccc2)C(C(=O)/C=C/c2ccccc2)C1 (stereo not given) |  | 37.9 µM |  | 6.68 µM |  | 13.9 µM |  | 45.7 µM |  | 33.4 µM |  | 39.5 µM |  | 24.8 µM |  | > 100 µM |  | 15.5 µM |  | 43.7 µM
4 | CCCCc1ccc(C(N)=O)nc1 | > 100 µM | > 100 µM | > 100 µM | > 100 µM | > 100 µM | > 100 µM | > 100 µM | > 100 µM | > 100 µM | > 100 µM | > 100 µM | > 100 µM | > 100 µM | > 100 µM | > 100 µM | > 100 µM | > 100 µM | > 100 µM | > 100 µM | > 100 µM
5 | COc1ccc(/C=C2\CN(Cc3cn(CCCNc4ccnc5cc(Cl)ccc45)nn3)C/C(=C\c3ccc(OC)cc3)C2=O)cc1 | 4.86 µM | 17.6 µM | 1.69 µM | 7.47 µM | 14.3 µM | 30.3 µM | 5.07 µM | 19.5 µM | 16.3 µM | 32.1 µM | 9.85 µM | 39.6 µM | 8.28 µM | 23.3 µM | 3.15 µM | 14.5 µM | 1.83 µM | 5.14 µM | 7.37 µM | 28.1 µM
